Patent US20210393645A1, “TREATMENT FOR PROGRESSIVE MULTIPLE SCLEROSIS” (UTI LIMITED PARTNERSHIP, priority 2016, published 2021)
“Also recorded” adds a separate entry of the source. Counter-ions that a name gives are not always drawn. Like-named read-outs stand apart in the source and are kept apart here.

Assays:
[1] = test system: human neurons; assay: Iron (FeSO4) mediated neurotoxicity screening, MAP-2 positive neurons counted; format: cell-based; settings: for viability at 10 µM: Homo sapiens, Neuron, read-out: Drug % control (mean): number of neurons normalized to untreated control; for viability at 10 µM / Drug % control (mean): number of neurons normalized to untreated control: drug 10 μM 1 h before FeSO4 25 or 50 μM, MAP-2 neurons after 24 h
In short: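 Fetal human neurons (15-20 wk), plated with cytosine arabinoside, were pre-incubated 1 h with compounds (10 mM DMSO stocks) before FeSO4 at 25-50 μM final. Cells fixed a day later; MAP-2 immunostaining plus Hoechst nuclei imaged automatically, sites per well averaged; quadruplicates.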

[2] = test system: T-cells; assay: Proliferation of T-lymphocytes (3H-thymidine) in anti-CD3/anti-CD28 activated splenocytes; format: cell-based, mouse; settings: for inhibition at 10 µM: Mus musculus, T-cell, 72 h, read-out: mean reduction of 3H-thymidine incorporation (T-cell proliferation); for toxic effects in the T-cell proliferation test: data not shown
Experimental: A previously published protocol was used for isolating and activating T-cells (Keough et al., Nature Comm 7:11312, 2016). Spleens from female C57B16 mice were harvested and after mechanical dissociation the cell suspension was passed through a 70 μm cell strainer and separated by Ficoll gradient (1800 RPM, 30 min). Splenocytes were plated (2.5×10^5 cells in 100 μl/well) in anti-CD3 antibody coated 96-well plates (1,000 ng m1^−1 plate-bound anti-CD3 and 1,000 ng m1^−1 anti-CD28 suspended in media) to activate T-cells. Directly before plating, wells were treated with respective drugs in a final concentration of 10 μM. Cells were cultured in RPMI 1640 medium, supplemented with 10% FBS, 1 μM sodium pyruvate, 2 mM L-alanyl-L-glutamine, 1% penicillin/streptomycin, 1% HEPES and 0.05 mM 2-mercaptoethanol (all supplements were from Invitrogen). After 48 h, ^3H-thymidine was added in a concentration of 1 μCi per well, and cells were harvested after 24 h on filter mats. Mats were then evaluated for radioactivity (counts per minute) using a liquid scintillation counter.

[3] = test system: human neurons; assay: Live cell imaging of propidium iodide positive neurons challenged with FeSO4; format: cell-based; settings: FeSO4 50 μM, pre-treatment 1 h
Experimental: Neurons were prepared as described above. Directly after the addition of FeSO4 to healthy neurons, the live cell-permeant Hoechst 33342 (1:2 diluted in AIM-V medium, nuclear blue; ThermoFisher Scientific, Grand Island, NY, USA) and the live cell-impermeable propinium iodide (PI, 1:20 diluted in AIM-V medium) were added in a volume of 20 μI (Sigma-Aldrich). In compromised cells, PI could now diffuse across the plasma membrane. Live cell imaging was performed using the automated ImageXpress® imaging system under controlled environmental conditions (37° C. and 5% CO2). Images were taken from 9 sites per well at baseline and then every 30 min for 12h. After export with MetaXpress®, videos were edited with ImageJ (NIH) in a uniform manner. Nuclei were pseudo colored in cyan, PI-positive cells in red.
Live cell imaging over 12 h supported the neuroprotective effects of drugs. We selected indapamide and desipramine for live imaging studies.

[4] = test system: human neurons; assay: Mitochondrial damage to neurons induced by rotenone; format: cell-based; settings: rotenone 10 μM, drug 10 μM
Experimental: Human neurons were isolated from brain tissues of therapeutically aborted 15-20 week old fetuses, in accordance with ethics approval of the University of Calgary ethics committee, after written informed consent of the pregnant donors. Neurons were isolated as previously described (Vecil et al., 2000) brain specimens were washed in phosphate buffered saline (PBS) to remove blood, followed by removal of meninges. […] Thereafter, the digestion was stopped by addition of 4 ml fetal calf serum (FCS). The solution was filtered through a 132 μm filter and centrifuged (three times, 1,200 rpm, 10 min). Cells were cultured in feeding medium of minimal essential medium (MEM) supplemented with 10% fetal bovine serum (FBS), 1 μM sodium pyruvate, 10 μM glutamine, 1× non-essential amino acids, 0.1% dextrose and 1% penicillin/streptomycin (all culture supplements from Invitrogen, Burlington, Canada). […] For experiments, the neuron-enriched cultures were retrypsinized and cells were plated in poly-L-ornithine pre-coated 96-well plates at a density of 100,000 cells/well in 100 μl of the complete medium supplemented with cytosine arabinoside. […] All conditions were performed in quadruplicates. A day later cells were fixed using 4% paraformaldehyde (PFA) and stored in PBS in 4° C.
The iron stock solution was prepared using 27.8 mg iron(II) sulfate heptahydrate (FeSO4) (Sigma-Aldrich, Oakville, Canada), 10 μl of 17.8M sulfuric acid and 10 ml deionized distilled water. After filtering with a 0.2 μm filter, FeSO4 was added to cells in a final concentration of 25-50 μM in a volume of 50 μl medium to the cells. Rotenone was dissolved in dimethyl sulfoxide (DMSO) and used in a final concentration of 10 μM.

[5] = Hydroxyl radical antioxidant capacity (HORAC) assay; format: biochemical; settings: vs 12.5 μM gallic acid (=1), 60 min
Experimental: In this assay, hydroxyl radicals generated by a Co(II)-mediated Fenton-like reaction oxidize fluorescein causing loss of fluorescence (Ou et al., J Argricultural Food Chemistry 50:2772-2777, 2002). The presence of an anti-oxidant reduces the loss of fluorescence and this can be monitored every 5 min over a period of 60 min with a Spectra Max Gemini XS plate reader (Molecular Devices, Sunnyvale, Calif., USA) and the software SoftMax Pro version 5. For monitoring fluorescence, we used an excitation wavelength of λ=485 nm and an emission wavelength of λ=520 nm.
The biochemical cell free hydroxyl radical antioxidant capacity (HORAC) assay investigates the prevention of hydroxyl radical mediated oxidation of to fluorescein in comparison to the strong anti-oxidant gallic acid. The generation of hydroxyl radicals by a cobalt-driven Fenton-like reaction oxidizes fluorescein with progressive loss of fluorescence. The presence of an anti-oxidant reduces the loss of fluorescence over time.
We compared the area under the curve of test compounds to that elicited by gallic acid to obtain the gallic acid equivalent (GAE).

[6] = test system: microglia; settings: shown previously; cited from earlier work
[7] = test system: mice; assay: Lysolecithin demyelination of the spinal cord in aging 8-10 months old mice; format: in vivo, mouse; settings: 20 mg/kg IP immediately after lysolecithin and once per day for 2 days; day 3
Text: Active demyelinating lesions can be found in MS specimens of all ages sampled, including late in life. Indeed, age has been identified to be a factor in the dreaded conversion from relapsing-remitting into secondary progressive MS. Contributing causes for aging-associated worsening in MS that drives progression include the steady loss of axons with longevity of disease, or the deficient repair of myelin in older compared to younger patients. We tested the hypothesis that the same demyelinating injury is more devastating to axons and myelin as the individual ages.
We thus treated aging 8-10 months old mice with intraperitoneal indapamide (20 mg/kg) immediately after lysolecithin demyelination, and once per day at 20 mg/kg for the next 2 days. Spinal cord tissues were taken for histology.

[8] = 1 h after the last of 16 daily clomipramine injections, 25 mg/kg IP
Experimental: One h after the last administration of clomipramine animals were anesthetized with ketamine/xylazine, blood was taken by an intracardiac puncture for serum, and animals were then subjected to PBS-perfusion. […] Cervical and lumbar cords were snap frozen.
For preparation of samples, 100 pl of ice cold methanol were added to 100 pl of serum in each sample after addition of the internal standard maprotiline. The tubes were vortexed and left on ice for 10 min followed by centrifugation at 10,000×g for 4 min. An equal amount of distilled water was added to each supernatant. Spinal cord samples were each homogenized in 10 volumes of ice-cold 80% methanol. Twenty pl of o-phosphoric acid were added to all samples after addition of internal standard (maprotiline). The tubes were vortexed and left on ice for 10 min, followed by centrifugation at 10,000×g for 4 min and an equal volume of distilled water was added to each supernatant. […]
Calibration curves consisting of varying amounts of authentic clomipramine and N-desmethylclomipramine and the same fixed amount of maprotiline as added to the samples being analyzed were run in parallel through the procedure described above and the ratios of clomipramine and N-desmethylclomipramine to maprotiline were used to determine the amount of drug and metabolite in the serum and spinal cord samples.

[9] = drug 10 μM, vs activated splenocytes

**Q.** What does the source list for `N[C@@H](C(=O)N[C@@H]1C(=O)N2C(C(=O)O)=C(Cl)CS[C@H]12)c1ccccc1` [CEFACLOR]?
**A.** viability at 10 µM [1]: 89.9%; inhibition at 10 µM [2, 9]: 23%

**Q.** With `CN(C)CCCN1c2ccccc2Sc2ccc(Cl)cc21` [CHLORPROMAZINE] as the compound, how does the viability at 10 µM [1] read?
**A.** 98.8%

**Q.** What about the inhibition at 10 µM [2, 9] of the same compound?
**A.** 99.4%

**Q.** And the “toxic effects in the T-cell proliferation test” value ([2]; drug 10 μM)?
**A.** toxic effects

**Q.** Which “protection from FeSO4-mediated neurotoxicity (in words)” value [1] does the source give for `CNCCCN1c2ccccc2CCc2ccccc21` [DESIPRAMINE HYDROCHLORIDE] here?
**A.** strong protection

**Q.** And the viability at 10 µM [1]?
**A.** 84.4%

**Q.** What about the “number of PI-positive neurons in response to FeSO4 over 12 h” value [3] of the same compound?
**A.** significantly attenuated

**Q.** And the “neurotoxicity by rotenone (mitochondrial damage)” value (from here on “neurotoxicity by rotenone”) [4]?
**A.** active against damage to the mitochondrial respiratory chain

**Q.** And the inhibition at 10 µM [2, 9]?
**A.** 92.2%

**Q.** And the “mean HORAC-GAE (gallic acid equivalents)” value [5]?
**A.** -5.00

**Q.** Which viability at 10 µM [1] does the source give for `OCCN(CCO)c1nc(N2CCCCC2)c2nc(N(CCO)CCO)nc(N3CCCCC3)c2n1` [DIPYRIDAMOLE] here?
**A.** 165%

**Q.** And the inhibition at 10 µM [2, 9]?
**A.** 89.3%

**Q.** For `CN(C)CCC=C1c2ccccc2COc2ccccc21` [DOXEPIN HYDROCHLORIDE], which viability at 10 µM [1] is on record?
**A.** 76.9%

**Q.** And the “microglial activation reduced to” value [6]?
**A.** 46%

**Q.** And the inhibition at 10 µM [2, 9]?
**A.** 85.3%

**Q.** Which viability at 10 µM [1] does the source give for `CN(C)CCCN1c2ccccc2CCc2ccccc21` [IMIPRAMINE HYDROCHLORIDE] here?
**A.** 106%

**Q.** And the inhibition at 10 µM [2, 9]?
**A.** 66.4%

**Q.** Which results are given for `CC1Cc2ccccc2N1NC(=O)c1ccc(Cl)c(S(N)(=O)=O)c1` (stereo not shown) [INDAPAMIDE]?
**A.** viability at 10 µM [1]: 126%; protection from FeSO4-mediated neurotoxicity (in words) ([1]; drug 10 μM, human neurons): strong neuroprotective effects against iron toxicity; axonal loss [7]: less axonal loss; lesional malondialdehyde level [7]: reduced lesional malondialdehyde; volume of demyelination [7]: smaller volume of demyelination; number of PI-positive neurons in response to FeSO4 over 12 h [3]: significantly attenuated; neurotoxicity by rotenone (mitochondrial damage) [4]: reduced neurotoxicity; also recorded: active against damage to the mitochondrial respiratory chain; effect on T-lymphocyte proliferation (in words) [2]: no effect on T-lymphocyte proliferation; mean HORAC-GAE (gallic acid equivalents) [5]: 4.1

**Q.** What does the source list for `CC(CCc1ccccc1)NCC(O)c1ccc(O)c(C(N)=O)c1` (stereo not shown) [LABETALOL HYDROCHLORIDE]?
**A.** viability at 10 µM [1]: 54.4%; neurotoxicity by rotenone (mitochondrial damage) ([4]; HYDROCHLORIDE): reduced neurotoxicity; also recorded: active against damage to the mitochondrial respiratory chain; inhibition at 10 µM [2, 9]: 26.8%

**Q.** What does the source list for `OC(c1cc(C(F)(F)F)nc2c(C(F)(F)F)cccc12)C1CCCCN1` (stereo not shown) [MEFLOQUINE]?
**A.** viability at 10 µM [1]: 47%; inhibition at 10 µM [2, 9]: 62.3%

**Q.** With `CC12CC3CC(C)(C1)CC(N)(C3)C2` [MEMANTINE HYDROCHLORIDE] as the compound, how does the viability at 10 µM [1] read?
**A.** 53.2%

**Q.** What about the “increase of T-cell proliferation” value [2, 9] of the same compound?
**A.** 17.5%

**Q.** For `O=C1c2c(O)ccc(O)c2C(=O)c2c(NCCNCCO)ccc(NCCNCCO)c21` [MITOXANTHRONE HYDROCHLORIDE], which viability at 10 µM [1] is on record?
**A.** 52.5%

**Q.** What about the inhibition at 10 µM [2, 9] of the same compound?
**A.** 99.7%

**Q.** And the “toxic effects in the T-cell proliferation test” value ([2]; drug 10 μM)?
**A.** toxic effects

**Q.** Which viability at 10 µM [1] does the source give for `N#Cc1ccc2c(c1)N(CCCN1CCC(O)CC1)c1ccccc1S2` [PERICIAZINE] here?
**A.** 82%

**Q.** And the “protection from FeSO4-mediated neurotoxicity (in words)” value ([1]; drug 10 μM, human neurons)?
**A.** strong protection

**Q.** What about the “neurotoxicity by rotenone” value [4] of the same compound?
**A.** reduced neurotoxicity

**Q.** What about the inhibition at 10 µM [2, 9] of the same compound?
**A.** 28%

**Q.** With `CC(CN1c2ccccc2Sc2ccccc21)N(C)C` (stereo not shown) [PROMETHAZINE HYDROCHLORIDE] as the compound, how does the viability at 10 µM [1] read?
**A.** 105%

**Q.** What about the “neurotoxicity by rotenone” value [4] of the same compound?
**A.** reduced neurotoxicity

**Q.** What about the inhibition at 10 µM [2, 9] of the same compound?
**A.** 74.6%

**Q.** Which results are given for `CC(CN(C)C)CN1c2ccccc2CCc2ccccc21` (stereo not shown) [TRIMIPRAMINE MALEATE]?
**A.** viability at 10 µM [1]: 88.6%; neurotoxicity by rotenone (mitochondrial damage) [4]: reduced neurotoxicity; inhibition at 10 µM [2, 9]: 54%; mean HORAC-GAE (gallic acid equivalents) [5]: 4.2

**Q.** Which “Drug % control (mean): number of neurons normalized to untreated control” value [1] does the source give for `Cc1cn([C@H]2C[C@H](N=[N+]=[N-])[C@@H](CO)O2)c(=O)[nH]c1=O` [ZIDOVUDINE [AZT]] here?
**A.** 66.49%

**Q.** With `CN(C)CCc1c[nH]c2ccc(C[C@H]3COC(=O)N3)cc12` [ZOLMITRIPTAN] as the compound, how does the viability at 10 µM [1] read?
**A.** 54.9%

**Q.** For `CNCCCN1c2ccccc2CCc2ccc(Cl)cc21` [desmethylclomipramine], which mean serum concentration [8] is on record?
**A.** 0.101 µM

**Q.** And the “mean spinal cord level” value [8]?
**A.** 1.5 µM

**Q.** For CRESOL, which “Drug % control (mean): number of neurons normalized to untreated control” value [1] is on record?
**A.** 6.04%

**Q.** For TRIMEPRAZINE TARTRATE, which “Drug % control (mean): number of neurons normalized to untreated control” value [1] is on record?
**A.** 73.31%

**Q.** And the “mean reduction of 3H-thymidine incorporation (T-cell proliferation)” value [2, 9]?
**A.** 43.3%
